According to patent publication US7714150B2, “Aminoalkyl-amidomethyl-substituted 2-(4-sulphonylamino)-3-hydroxy-3,4-dihydro-2H-chroman-6-yl derivatives” (Solvay Pharmaceuticals GmbH, priority 2005, dated 2010):

test system: left atrium of rats' hearts; assay: Functional refractory period prolongation on isolated left atria of rats' hearts in vitro; parameters: species or system rat; conditions: 10 μM
Procedure: In this test model it is determined to what extent the Kv1.5-blocking substances of Formula I result in a prolongation of the functional refractory period in the left atrium of rats. The refractory period is the minimum possible elapsed time between the basic stimulus and additional stimulus in which a renewed contraction can be triggered. The extent of the prolongation of the functional refractory period is a measurement of the antiarrhythmic effectiveness of the substances according to the invention. The functional refractory period is determined by testing on the electrically stimulated preparation at what elapsed time from the preceding contraction a renewed contraction can be triggered by additional electrical stimuli.
The hearts were removed from freshly sacrificed rats (Sprague-Dawley, Charles-River, Germany). The left atria were isolated and fastened to force transducers in a temperature-controlled (30° C.), gasified (O2 95%, CO2 5%) organ bath which was filled with modified Tyrode solution (all values in mM: NaCl 137; KCl 2.7; CaCl2 1.8; MgCl2 0.8; NaHCO3 11.9; NaH2PO4 0.6; glucose 5). In order to trigger regular contractions, the preparations were electrically stimulated (rectangular pulses, pulse magnitude 3.5× threshold stimulus, pulse width 1.5 ms, frequency 1 Hz). Initially, the initial value of the functional refractory period was determined by applying extra pulses in addition to the basic stimulus, the elapsed time from the preceding basic stimulus being shortened until no further additional contraction could be triggered. Then the cumulative addition of increasing concentrations (0.1-32 μM) of the substances of Formula I took place at intervals of 20 min. each, the refractory period being determined again in each case 18 min. after the addition had taken place. Before the measurement, stock solutions of the test substances (3.2 and 0.32 mM in 100% DMSO) were prepared. In order to achieve the desired final concentrations of the substances (0.1-32 μM) in the organ bath (volume 25 or 100 ml), corresponding volumes of these stock solutions were then poured into the organ bath.
In each case the prolongation of the functional refractory period (FRP) in the left atrium of the rats' hearts in milliseconds observed after the addition of 10 or 32 μM of the respective substance of Formula I to the atrial preparations was given as characteristic variable.

Row | Compound | FRP prolongation
1 | CCc1ccc(S(=O)(=O)NC2c3cc(CC(=O)N4CCN(Cc5ccccc5)CC4)ccc3OC(C)(C)C2O)cc1 (stereo not drawn) [Example 10, N-{6-[2-(4-benzyl-piperazin-1-yl)-2-oxo-ethyl]-3-hydroxy-2,2-dimethyl-chroman-4-yl}-4-ethyl-benzenesulfonamide] | 24 (10 μM) ms
2 | CCCc1ccc(S(=O)(=O)N[C@@H]2c3cc(CC(=O)N4CCN(Cc5ccccc5)CC4)ccc3OC(C)(C)[C@H]2O)cc1 [Example 1] | 15 (10 μM) ms
3 | CC(C)CCN([C@@H]1c2cc(CC(=O)NCCN3CCCCC3)ccc2OC(C)(C)[C@H]1O)S(=O)(=O)c1ccc(I)cc1 [Example 3, (3S, 4R)-2-{3-Hydroxy-4-[(4-iodobenzenesulfonyl)-(3-methylbutyl)amino]-2,2-dimethylchroman-6-yl}-N-(2-piperidin-1-ylethyl)acetamide] | 15 (10 μM) ms
4 | Cc1ccc(S(=O)(=O)N(CC2CC2)[C@@H]2c3cc(CC(=O)N4CCN(Cc5ccccc5)CC4)ccc3OC(C)(C)[C@H]2O)cc1 [Example 7, (3S, 4R)-N-{6-[2-(4-Benzylpiperazin-1-yl)-2-Oxoethyl]-3-Hydroxy-2,2-Dimethylchroman-4-yl}-N-Cyclopropylmethyl-4-Methylbenzenesulfonamide] | 13 (10 μM) ms

same assay, conditions: 32 μM

Row | Compound | FRP prolongation
5 | CCc1ccc(S(=O)(=O)N[C@@H]2c3cc(CC(=O)N4CCN(Cc5cccnc5)CC4)ccc3OC(C)(C)[C@H]2O)cc1 [Example 8, 4-Ethyl-N-((3S,4R)-3-Hydroxy-2,2-Dimethyl-6-{2-Oxo-2-[4-(pyridin-3-ylmethyl)piperazin-1-yl]ethyl}-3,4-dihydro-2H-Chromen-4-yl)Benzenesulfonamide] | 22 (32 μM) ms
6 | COc1cccc(S(=O)(=O)N(CCC(C)C)[C@@H]2c3cc(CC(=O)NCC4CN(Cc5ccccc5)CCO4)ccc3OC(C)(C)[C@H]2O)c1 (stereo partly drawn) [Example 6] | 16 (32 μM) ms

target: T1, Kv1.3-potassium channel (Homo sapiens, UniProt P22001); assay: Kv1.3-potassium channel-blocking effect in vitro (membrane potential-sensitive dye fluorescence in transfected CHO cells); format: cell-based; conditions: 10 μM test substance; CHO cells transfected with Kv1.3; relative to margatoxin
T1 construct: expressed in transfected cells; host or cells: CHO (Chinese hamster ovary) cells, stably transfected with a Kv1.3 plasmid
Excerpt: In this test model, known ovary cells of the Chinese hamster (=CHO) are used which are stably transfected with the Kv1.3-potassium channel The blockade of the cell-inherent Kv1.3-potassium channel activity in the transfected cells is accompanied by a positive shift in the membrane potential from approx. −40 mV to −30 mV, whereas in the wild-type CHO cells investigated in parallel no significant shift in the membrane potential is triggered. A change in the membrane potential is thus connected to the reduction in the Kv1.3-potassium channel activity. By blocking the Kv1.3-potassium channels e.g. with substances of Formula I and the resulting change in the membrane potential, an accumulation of a membrane potential-sensitive fluorescent dye in intracellular compartments of the ovary cells and ultimately increasing fluorescence occurs. The change in the membrane potential of the ovary cells is therefore measured indirectly via the increase in fluorescence of the membrane potential-sensitive dyes.
The cells were transfected with the Kv1.3 plasmid in known manner with a commercially obtainable transfection reagent (DMRIE-C from Gibco BRL, Germany). The successful transfection was verified by means of immunofluorescence and by “patch-clamp” investigations of the potassium ion current. The fluorescence measurements were performed on a Tecan Safire fluorescence reader from Tecan, Germany. In each case, the increase in the fluorescent intensity caused by the blockade of the Kv1.3-potassium channels in the ovary cells with substances of Formula I in a concentration of 10 μM was determined as characteristic variable. The increase in the fluorescent intensity was given in each case in percent (%) compared with an increase in the fluorescent intensity caused by the reference substance margatoxin. Margatoxin is known as a selective Kv1.3-potassium channel blocker (see e.g. M. Garcia-Calvo et al., J. Biol. Chem. 268 (1993) 18866-18874).

T1 sequence (P22001 whole entry): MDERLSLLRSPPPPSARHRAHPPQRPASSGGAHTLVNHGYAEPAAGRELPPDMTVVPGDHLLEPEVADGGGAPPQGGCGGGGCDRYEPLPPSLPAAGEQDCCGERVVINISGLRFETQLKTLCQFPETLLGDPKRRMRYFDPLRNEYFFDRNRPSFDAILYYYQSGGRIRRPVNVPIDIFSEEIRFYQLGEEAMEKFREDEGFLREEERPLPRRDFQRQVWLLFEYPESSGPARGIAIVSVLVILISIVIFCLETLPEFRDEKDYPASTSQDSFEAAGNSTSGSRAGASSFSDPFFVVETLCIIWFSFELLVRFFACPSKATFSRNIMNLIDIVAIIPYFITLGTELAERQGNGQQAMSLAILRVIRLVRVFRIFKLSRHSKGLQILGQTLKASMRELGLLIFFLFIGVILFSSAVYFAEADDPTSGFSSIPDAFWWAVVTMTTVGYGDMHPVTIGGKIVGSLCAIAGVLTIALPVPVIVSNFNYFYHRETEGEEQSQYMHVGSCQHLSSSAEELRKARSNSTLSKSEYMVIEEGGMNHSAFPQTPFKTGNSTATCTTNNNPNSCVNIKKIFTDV

Row | Compound | Increase in the fluorescent intensity (% margatoxin)
7 | CCCCN(CC)CCNC(=O)Cc1ccc2c(c1)[C@@H](N(CC(CC)CC)S(=O)(=O)c1ccc(I)cc1)[C@H](O)C(C)(C)O2 [Example 5, (3S, 4R)-N-[2-(Butylethylamino)Ethyl]-2-{4-[(2-Ethylbutyl)-(4-iodobenzenesulfonyl)Amino]-3-Hydroxy-2,2-dimethylchroman-6-yl)Acetamide] | 39.8 % margatoxin
8 | COc1cccc(S(=O)(=O)N(CCC(C)C)[C@@H]2c3cc(CC(=O)NCC4CN(Cc5ccccc5)CCO4)ccc3OC(C)(C)[C@H]2O)c1 (stereo partly drawn) [Example 6] | 59.9 % margatoxin
9 | CCC(CC)CN([C@@H]1c2cc(CC(=O)N[C@@H]3CCN(Cc4ccccc4)C3)ccc2OC(C)(C)[C@H]1O)S(=O)(=O)c1cccc(OC)c1 [Example 4, (3S, 4R)-N-(1-Benzylpyrrolidin-3R-yl)-2-{4-[(2-Ethylbutyl)-(3-Methoxybenzenesulfonyl)Amino]-3 -Hydroxy-2,2-Dimethylchroman-6-yl}Acetamide] | 41.8 % margatoxin
